Data from patent publication US20240035973A1, “METHODS AND COMPOSITIONS OF STABLE THALLIUM FLUX ASSAYS FOR DETECTING MODULATORS OF ION CHANNELS” (ION Biosciences, priority 2022, published 2024).
Like-named read-outs stand apart in the source and are kept apart here.

How the values were obtained:
[1] = target: T1, GIRK (Homo sapiens, UniProt P48051+P48549); assay: traditional thallium flux assay (influx), dose response; assay type: cell-based; details: traditional thallium flux method, CHO GIRK cells
T1 sequence (P48549 1-501): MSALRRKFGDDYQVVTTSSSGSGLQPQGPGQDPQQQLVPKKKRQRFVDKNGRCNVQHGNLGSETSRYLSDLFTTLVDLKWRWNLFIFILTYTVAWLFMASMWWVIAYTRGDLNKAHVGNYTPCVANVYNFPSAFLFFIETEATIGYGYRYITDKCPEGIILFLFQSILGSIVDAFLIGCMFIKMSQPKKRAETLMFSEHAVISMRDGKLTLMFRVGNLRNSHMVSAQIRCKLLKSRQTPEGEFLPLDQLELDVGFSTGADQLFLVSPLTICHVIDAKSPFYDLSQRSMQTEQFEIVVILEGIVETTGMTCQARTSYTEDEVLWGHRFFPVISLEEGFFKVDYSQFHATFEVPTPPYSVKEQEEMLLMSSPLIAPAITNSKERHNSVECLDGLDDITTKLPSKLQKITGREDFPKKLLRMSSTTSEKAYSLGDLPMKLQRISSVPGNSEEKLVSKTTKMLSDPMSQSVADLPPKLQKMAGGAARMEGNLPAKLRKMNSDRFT
T1 sequence (P48051 1-423): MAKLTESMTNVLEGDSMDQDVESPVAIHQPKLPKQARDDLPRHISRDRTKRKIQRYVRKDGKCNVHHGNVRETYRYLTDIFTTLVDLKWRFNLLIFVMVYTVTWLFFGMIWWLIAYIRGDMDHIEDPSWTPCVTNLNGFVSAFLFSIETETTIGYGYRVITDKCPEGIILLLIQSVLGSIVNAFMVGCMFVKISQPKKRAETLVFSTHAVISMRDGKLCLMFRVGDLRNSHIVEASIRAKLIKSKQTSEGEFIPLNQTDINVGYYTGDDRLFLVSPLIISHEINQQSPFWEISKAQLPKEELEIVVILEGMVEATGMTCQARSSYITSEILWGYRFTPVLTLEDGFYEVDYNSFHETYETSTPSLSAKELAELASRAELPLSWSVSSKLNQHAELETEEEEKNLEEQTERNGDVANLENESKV
Procedure: FIG. 5: (Left) Overlay of normalized dose response curves acquired using new method. Data was acquired using different analytical methods or instruments, and all three result in similar profiles and reported EC50 values.
In a comparative test of the efflux method disclosed herein, EC50 values were determined using VU551 as the effector. Three different instruments were used to monitor the change in fluorescence: 1- kinetic imaging plate reader (Hamamatsu FDSS), 2 - fluorescent microscope; 3- fluorescent plate reader. FIG. 5 depicts an overlay of normalized dose response curves acquired using the efflux method described herein. Regardless of the method of data collection, all three instruments provided similar profiles and reported similar EC50 values. In the right graph of FIG. 5, a dose response curve acquired using traditional thallium flux assay methods is shown. […] The use of a plate reader to determine the EC50 in the efflux method produced the closest result to the traditional method.

[2] = target: T2, GIRK1/2 (Homo sapiens, UniProt P48051+P48549); assay: thallium efflux assay by flow cytometry in CHO GIRK1/2 cells; assay type: cell-based
T2 construct: expressed in transfected cells; host or cells: CHO (Chinese hamster ovary) cells overexpressing GIRK1 and GIRK2
T2 sequence (P48549 1-501): T1 sequence (P48549 1-501)
T2 sequence (P48051 1-423): T1 sequence (P48051 1-423)
Procedure: CHO GIRK cells were treated with HEPES-Buffered Hanks Balanced Salt Solution (HHBSS, Control) or GIRK activator, VU0466551 (VU551). Data was acquired 50 minutes after addition of 1 μM VU551 using a BD Accuri C6 Flow Cytometer. […] FIG. 18 depicts an overlay of histograms of CHO GIRK1/2 cell fluorescence in treated and control cells.
FIG. 19 depicts the kinetic profile of CHO GIRK1/2 median cell fluorescence. Sample data was acquired before and at different time points after the addition of 3 μM GIRK activator, VU0466551 (VU551) or HHBSS (control). A slow increase in fluorescence is observed in the untreated group.

[3] = target: T1, GIRK; set-up: expressed in transfected cells; host or cells: CHO-K1 cells overexpressing GIRK channels; details: potassium indicator; plate reader or microscopy; read-out: EC50, literature reported value (calculated EC50s in line with it); cited from earlier work

**Q.** Which results are given for Cc1cc(NC(=O)Nc2ccc(F)c(F)c2)n(Cc2ccccc2)n1 [VU551]?
**A.** EC50 [1]: 77 nM; Mean cell fluorescence of the treated group ([2]; 1 μM, 50 minutes after addition, BD Accuri C6 Flow Cytometer, control 4.5M RFUs): 2.5 M; change in median cell fluorescence (kinetic profile) ([2]; 3 μM, before and at different time points after addition): rapid loss in fluorescence; EC50 [3]: ~75 nM
